Source: article PMC12368815, “Targeting Cancer with New Morpholine-Benzimidazole-Oxadiazole Derivatives: Synthesis, Biological Evaluation, and Computational Insights” (ACS Omega, 2025)

Assays:
[1] = system: HT-29 cell line (human colon cancer cell line); experiment: MTT cytotoxicity assay on HT-29 colon cancer cells; type: cell-based; conditions: for IC50: Homo sapiens, HT-29, MTT, mean of four independent assays, read-out: IC50 HT29; for Selectivity index (SI): NIH3T3 versus HT29
Experimental: (§1) Compounds 5a–5j were evaluated for their anticancer activity via the MTT assay against the HT-29 cell line. […] Both the synthesized compounds and standards were tested across concentrations from 1000 to 0.49 μg/mL.
(§2) The cytotoxic effects of the compounds on colon cancer (HT29, ATCC HTB-38) and normal healthy fibroblast (NIH3T3, ATCC CRL-1658) cell lines were evaluated using the MTT assay. Based on the cytotoxicity data 5c, 5h and 5j stand out in terms of activity.

[2] = system: NIH3T3 (healthy normal fibroblast cells); experiment: MTT cytotoxicity assay on NIH3T3 normal fibroblasts; type: cell-based; conditions: Mus musculus, mean of four independent assays
Experimental: as §1, §2

VEGFR-2 enzyme = target: T1, VEGFR-2 enzyme (Homo sapiens, UniProt P35968); experiment: In vitro VEGFR-2 enzyme inhibition assay kit; type: biochemical
T1 construct: purchased
Experimental: The inhibitory effects of the synthesized compounds on the VEGFR-2 enzyme were assessed using an in vitro assay kit (Table ).

HT-29 cells = experiment: Annexin V-FITC/PI flow cytometry apoptosis analysis; type: cell-based, human; conditions: HT29, compound at IC50 concentration, 24 h, mean of two repetitions
Description: Programmed cell death-apoptosis is a normal physiological process in healthy organisms that eliminates cells no longer needed. During apoptosis, phosphatidylserine (PS) in the cell membrane is translocated to the outer layer. The Annexin V protein included in the kit binds to this externalized PS, enabling its detection with FITC, a fluorescent marker. Annexin V can also bind to necrotic cells. In such cases, the cells are identified using “Ethidium Homodimer III (EthD-III) (or propidium iodide, PI)”. Flow cytometric assay kits use double-staining protocols to assess apoptosis by detecting differences in cell morphology through the binding efficiency of the Annexin–V complex to PS on the cell surface. , Apoptotic, Necrotic, and Healthy Cells Detection Kit [Available from (Apoptic necrotic kit)] used during flow cytometer analysis.
Briefly, HT-29 cells were plated in six-well plates following the manufacturer’s guidelines and exposed to the compounds at their IC50 concentrations for 24 h. Following treatment, cell suspensions were centrifuged at 1200 rpm for 5 min, and the resulting pellets were rinsed twice with 1 mL of cold phosphate-buffered saline. The assay kits were used according to the manufacturer’s instructions by transferring cells to the appropriate buffer solutions. For each sample, at least 10 000 cells were evaluated. Cell population fractions in various quadrants and gates were determined using quadrant and gate statistical analysis, with settings optimized based on comparison to the untreated control group.
To further investigate the mechanism underlying its anticancer effect, the ability of compound 5h to induce apoptosis was assessed using the Annexin V-FITC/PI dual staining method. The results are presented in Figure , where the data are shown in four quadrants corresponding to different cell populations: live (living) cells correspond to Q1-LL, early apoptotic cells to Q1-LR, late apoptotic cells to Q1-UR, and necrotic cells to Q1-UL.

T1 sequence (P35968 20-1356): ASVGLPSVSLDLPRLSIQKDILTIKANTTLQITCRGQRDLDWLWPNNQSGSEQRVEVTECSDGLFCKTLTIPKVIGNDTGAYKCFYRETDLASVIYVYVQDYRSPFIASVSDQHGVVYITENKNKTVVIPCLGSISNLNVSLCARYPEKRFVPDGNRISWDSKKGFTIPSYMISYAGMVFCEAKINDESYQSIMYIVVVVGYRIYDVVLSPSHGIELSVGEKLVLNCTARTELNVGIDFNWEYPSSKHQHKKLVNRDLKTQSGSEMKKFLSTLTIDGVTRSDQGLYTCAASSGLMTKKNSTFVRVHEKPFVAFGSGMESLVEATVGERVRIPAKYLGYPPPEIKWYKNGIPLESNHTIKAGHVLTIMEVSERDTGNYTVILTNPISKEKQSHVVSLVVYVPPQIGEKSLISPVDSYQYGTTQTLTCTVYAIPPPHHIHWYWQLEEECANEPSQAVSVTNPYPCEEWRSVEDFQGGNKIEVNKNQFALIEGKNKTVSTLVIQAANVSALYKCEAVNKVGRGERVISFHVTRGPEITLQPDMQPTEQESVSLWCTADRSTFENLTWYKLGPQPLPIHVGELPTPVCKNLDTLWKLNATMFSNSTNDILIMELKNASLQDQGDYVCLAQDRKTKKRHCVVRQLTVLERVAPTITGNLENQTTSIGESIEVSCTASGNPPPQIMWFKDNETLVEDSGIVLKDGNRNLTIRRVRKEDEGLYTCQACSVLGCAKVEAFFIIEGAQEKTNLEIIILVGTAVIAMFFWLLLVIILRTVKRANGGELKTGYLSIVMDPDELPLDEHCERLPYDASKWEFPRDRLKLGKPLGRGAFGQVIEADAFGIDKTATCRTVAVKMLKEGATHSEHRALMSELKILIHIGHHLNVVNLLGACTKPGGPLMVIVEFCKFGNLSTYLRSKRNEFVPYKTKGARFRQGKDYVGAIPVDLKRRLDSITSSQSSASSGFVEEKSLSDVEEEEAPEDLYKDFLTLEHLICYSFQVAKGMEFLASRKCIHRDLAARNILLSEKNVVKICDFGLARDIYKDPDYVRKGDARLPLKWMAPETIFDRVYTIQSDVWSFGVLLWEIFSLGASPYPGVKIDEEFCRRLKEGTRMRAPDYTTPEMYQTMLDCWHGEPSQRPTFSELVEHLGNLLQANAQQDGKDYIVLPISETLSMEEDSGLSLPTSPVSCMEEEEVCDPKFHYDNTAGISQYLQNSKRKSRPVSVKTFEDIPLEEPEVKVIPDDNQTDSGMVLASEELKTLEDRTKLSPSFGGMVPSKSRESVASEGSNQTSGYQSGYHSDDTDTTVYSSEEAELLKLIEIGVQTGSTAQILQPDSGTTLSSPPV

Row | IC50 (VEGFR-2 enzyme) [µM] | Structure (SMILES) | IC50 [1] [µM] | Selectivity index (SI) [1] | IC50 [2] [µM] | fold higher cytotoxic activity than compound 5e ([1]; HT-29, compared to 5e) | early apoptosis (HT-29 cells) [%] | late apoptosis (HT-29 cells) [%] | necrosis (HT-29 cells) [%]
1 |  | O=C(CSc1nnc(-c2ccc3nc(-c4ccc(N5CCOCC5)cc4)[nH]c3c2)o1)c1ccccc1 [5a, 2-(5-(2-(4-Morpholinophenyl)-1H-benzo[d]imidazol-6-yl)-1,3,4-oxadiazol-2-ylthio)-1-phenylethan-1-One] | 135 ± 3.37 | 1.42 | 193 ± 7.56 |  |  |  | 
2 |  | Cc1ccc(C(=O)CSc2nnc(-c3ccc4nc(-c5ccc(N6CCOCC6)cc5)[nH]c4c3)o2)cc1 [5b, 2-(5-(2-(4-Morpholinophenyl)-1H-benzo[d]imidazol-6-yl)-1,3,4-oxadiazol-2-ylthio)-1-(p-tolyl) Ethan-1-One] | 22.7 ± 2.39 | 0.46 | 10.5 ± 2.17 |  |  |  | 
3 | 0.918 ± 0.027 | COc1ccc(C(=O)CSc2nnc(-c3ccc4nc(-c5ccc(N6CCOCC6)cc5)[nH]c4c3)o2)cc1 [5c, 1-(4-Methoxyphenyl)-2-(5-(2-(4-morpholinophenyl)-1H-benzo[d]imidazol-6-yl-1,3,4-oxadiazol-2-yl) Thio) Ethan-1-One] | 17.8 ± 1.77 | 0.59 | 10.4 ± 0.205 |  |  |  | 
4 |  | O=C(CSc1nnc(-c2ccc3nc(-c4ccc(N5CCOCC5)cc4)[nH]c3c2)o1)c1ccc(F)cc1 [5d, 1-(4-Fluorophenyl)-2-((5-(2-(4-morpholinophenyl)-1H-benzo[d]imidazol-6-yl)-1,3,4-oxadiazol-2-yl) Thio) Ethan-1-One] | 175 ± 5.92 | 0.93 | 163 ± 3.75 |  |  |  | 
5 |  | O=C(CSc1nnc(-c2ccc3nc(-c4ccc(N5CCOCC5)cc4)[nH]c3c2)o1)c1ccc(Cl)cc1 [5e, 1-(4-Chlorophenyl)-2-((5-(2-(4-morpholinophenyl)-1H-benzo[d]imidazol-6-yl)-1,3,4-oxadiazol-2-yl) Thio) Ethan-1-One] | 104 ± 4.53 | 5.12 | 531 ± 8.1 |  |  |  | 
6 |  | N#Cc1ccc(C(=O)CSc2nnc(-c3ccc4nc(-c5ccc(N6CCOCC6)cc5)[nH]c4c3)o2)cc1 [5f, 4-(2-(5-(2-(4-Morpholinophenyl)-1H-benzo[d]imidazol-6-yl-1,3,4-oxadiazol-2-yl) Thio) Acetyl) Benzonitrile] | 30.2 ± 1.16 | 0.49 | 14.7 ± 0.818 |  |  |  | 
7 |  | O=C(CSc1nnc(-c2ccc3nc(-c4ccc(N5CCOCC5)cc4)[nH]c3c2)o1)c1ccc([N+](=O)[O-])cc1 [5g, 2-(5-(2-(4-Morpholinophenyl)-1H-benzo[d]imidazol-6-yl-1,3,4-oxadiazol-2-yl)thio)-1-(4-nitrophenyl) Ethan-1-One] | 260 ± 8.68 |  | > 1000 |  |  |  | 
8 | 0.049 ± 0.002 | O=C(CSc1nnc(-c2ccc3nc(-c4ccc(N5CCOCC5)cc4)[nH]c3c2)o1)c1ccc(Cl)c(Cl)c1 [5h, 1-(3,4-Dichlorophenyl)-2-((5-(2-(4-morpholinophenyl)-1H-benzo[d]imidazol-6-yl)-1,3,4-oxadiazol-2-yl) Thio) Ethan-1-One] | 3.1 ± 0.979 | 4.88 | 15.2 ± 0.987 | approximately 33 fold | 2.05 ± 0.25 | 16.95 ± 2.85 | 12.2 ± 2.1
9 |  | Cc1ccc(C(=O)CSc2nnc(-c3ccc4nc(-c5ccc(N6CCOCC6)cc5)[nH]c4c3)o2)c(C)c1 [5i, 1-(2,4-Dimethylphenyl)-2-((5-(2-(4-morpholinophenyl)-1H-benzo[d]imidazol-6-yl)-1,3,4-oxadiazol-2-yl) Thio) Ethan-1-One] | 72.1 ± 4.61 | 2.05 | 148 ± 3.99 |  |  |  | 
10 | 0.098 ± 0.011 | O=C(CSc1nnc(-c2ccc3nc(-c4ccc(N5CCOCC5)cc4)[nH]c3c2)o1)c1ccc(Br)cc1 [5j, 1-(4-Bromophenyl)-2-((5-(2-(4-morpholinophenyl)-1H-benzo[d]imidazol-6-yl)-1,3,4-oxadiazol-2-yl) Thio) Ethan-1-One] | 9.66 ± 0.149 | 0.47 | 4.55 ± 0.763 |  |  |  | 
11 |  | CNC(=O)c1cc(Oc2ccc(NC(=O)Nc3ccc(Cl)c(C(F)(F)F)c3)cc2)ccn1 [Sorafenib, reference compound] | 2.92 ± 0.214 |  | 30.13 ± 0.147 |  |  |  | 
